Data reported in patent publication US20220227745A1, “Compounds For Modulating FXR” (NANJING RUIJIE PHARMA TECH CO., LTD., priority 2019, published 2022).

Columns and labels:
FXR LBD, GST = molecular target: T1, FXR LBD, GST (Homo sapiens, UniProt Q96RI1); assay: FXR Binding Assay (TR-FRET, Fluorescein-SRC2-2 coactivator peptide); settings: for Emax / Pct Effect (Emax %): % Activity relative to positive control; for Emax: read-out: Pct Effect (Emax %); for EC50: TR-FRET FXR LBD coactivator recruitment
T1 construct: FXR LBD, GST; purchased Invitrogen PV4834
T1 sequence (Q96RI1 262-486 limits assumed): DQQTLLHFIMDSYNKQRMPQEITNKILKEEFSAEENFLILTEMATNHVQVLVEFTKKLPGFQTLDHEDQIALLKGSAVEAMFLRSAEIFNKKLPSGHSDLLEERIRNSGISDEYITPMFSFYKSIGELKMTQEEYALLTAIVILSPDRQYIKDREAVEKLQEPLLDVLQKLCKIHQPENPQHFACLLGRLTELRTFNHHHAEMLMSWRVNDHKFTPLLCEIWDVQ

[1] = molecular target: T2, hFXR-LBD (FXR-GAL4 chimeric receptor) (Homo sapiens, UniProt Q96RI1); assay: FXR Transactivation Assay (GAL4 luciferase reporter in HEK293T cells); format: cell-based
T2 construct: host or cells: HEK293T
T2 sequence (Q96RI1 262-486 limits assumed): T1 sequence (Q96RI1 262-486 limits assumed)
Description: FXR Transactivation Assay
The present compounds were tested to assess their ability to stimulate FXR transactivation activity. The hFXR-LBD, coding sequence was inserted into the pBIND expression vector (Promega, E1581) to express FXR-GAL4 binding domain chimeric receptors. This expression vector and reporter vector (pGL4.35 which carry a stably integrated GAL4 promoter driven luciferase reporter gene) were co-transfected into HEK293T host cells. Upon agonist binding to the corresponding FXR-GAL4 chimeric receptor, the chimeric receptor binds to the GAL4 binding sites and stimulates the reporter gene.
All the working stock were shake for 5 min on plate shaker (QILINBEIER). Second, all cells were cultured as ATCC recommended. HEK293T cells were assayed in exponential growth phase. Removed culture medium from the flask and rinsed cells with PBS. Added TrypLE solution to the flask and make cells detach. Next, cells were washed once with complete growth medium. Then, cells were pelleted and washed twice with PBS to remove phenol red and resuspend them in medium to a proper concentration. Only cells with viability greater than 90% were used for assays. Seeded 6×10^6 HEK293T cells into a 100 mm dish and incubated at 37° C. under 5% CO2 atmosphere for 16 h. Third, Trans-IT reagent and Opti-MEM mix by inversion and incubate 5 min at room temperature. The cell transfection was performed by mixing DNA and the reagent mixture, as well as 6 μg GAL4-FXR plasmid or 2 μg pGL4.35 luciferase plasmid, respectively. The reagent mixture was added to a 100 mm dish and incubated for 4-7 hrs at 37° C. under 5% CO2 atmosphere. Fourth, transferred 75 nl compound dilutions into 384-well assay plates (PerkinElmer) and seeded HEK293T cells at 17,000 cells/well using phenol red-free DMEM containing 5% charcoal/dextran-treated FBS. Then, cells were incubated for 16-20 h at 37° C. under 5% CO2 atmosphere. Finally, added 25 μl Steady-Glo™ Luciferase Assay Reagent into each well of 384-well assay plate, and then shake plate for 5 min protected from light on a plate shaker. Then, the luminescence value was read on Evision 2104 plate reader (PerkinElmer).
The activity ratio was calculated as follow: […]
RLU: Resulting Luminescence
RLUpositive: The average RLU for the positive controls across the plate.
RLUvehicle: The average RLU for negative controls across the plate.
EC50 was calculated by fitting % Activity values and log of compound concentrations to nonlinear regression (dose response-variable slope) with GraphPad 5.0.
X: log of compound concentration.

FXR = molecular target: T3, FXR (Homo sapiens, UniProt Q96RI1); settings: cited from earlier work
T3 sequence (Q96RI1 1-486): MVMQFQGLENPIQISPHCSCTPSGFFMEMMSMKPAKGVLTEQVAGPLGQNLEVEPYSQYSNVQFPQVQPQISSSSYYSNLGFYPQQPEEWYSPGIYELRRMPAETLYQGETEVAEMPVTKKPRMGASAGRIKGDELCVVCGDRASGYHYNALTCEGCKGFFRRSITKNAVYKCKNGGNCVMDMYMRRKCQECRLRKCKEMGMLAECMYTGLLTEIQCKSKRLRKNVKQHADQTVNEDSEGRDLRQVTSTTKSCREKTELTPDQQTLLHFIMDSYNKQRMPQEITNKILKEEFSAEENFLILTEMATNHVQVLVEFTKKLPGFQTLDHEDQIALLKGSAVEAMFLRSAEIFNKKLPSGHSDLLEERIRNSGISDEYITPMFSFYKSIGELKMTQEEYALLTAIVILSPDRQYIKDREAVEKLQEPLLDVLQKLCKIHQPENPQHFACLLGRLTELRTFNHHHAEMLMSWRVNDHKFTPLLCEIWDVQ

[2] = in vivo; cited from earlier work
[3] = cited from earlier work
other nuclear receptor = settings: cited from earlier work
[4] = preclinical species; cited from earlier work
[5] = OCA treatment, clinical studies; cited from earlier work

| SMILES | Emax (FXR LBD, GST) [%] | EC50 (FXR LBD, GST) [nM] | EC50 [1] [nM] | other results |
| --- | --- | --- | --- | --- |
| Cn1cc(C(=O)O)c2ccc(N3CCN(CCc4c(-c5c(Cl)cccc5Cl)noc4C4CC4)C(C)(C)C3)cc21 [Example I38, 6-(4-(2-(5-cyclopropyl-3-(2,6-dichlorophenyl)isoxazol-4-yl)ethyl)-3,3-dimethylpiperazin-1-yl)-1-methyl-1H-indole-3-carboxylic Acid] | 133 | 48 | 377 | – |
| C[C@@H]1CN(CCc2c(-c3c(Cl)cccc3Cl)noc2C2CC2)CCN1c1ccc2c(C(=O)O)cn(C)c2c1 [Example I40, (R)-6-(4-(2-(5-cyclopropyl-3-(2,6-dichlorophenyl)isoxazol-4-yl)ethyl)-2-methylpiperazin-1-yl)-1-methyl-1H-indole-3-carboxylic Acid] | 131 | 77 | 343 | – |
| Cn1cc(C(=O)O)c2cc(F)c(N3CCN(CCc4c(-c5c(Cl)cccc5Cl)noc4C4CC4)CC3)cc21 [Example I42, 6-(4-(2-(5-cyclopropyl-3-(2,6-dichlorophenyl)isoxazol-4-yl)ethyl)piperazin-1-yl)-5-fluoro-1-methyl-1H-indole-3-carboxylic Acid] | – | 99 | 551 | Pct Effect (Emax %) (FXR LBD, GST): 196.20% |
| Cn1cc(C(=O)O)c2cc(F)c(N3CCN(CCc4c(-c5c(Cl)cccc5Cl)noc4C4CC4)CC3)cc21 [Example I45, 6-(4-(2-(5-cyclopropyl-3-(2,6-dichlorophenyl)isoxazol-4-yl)ethyl)piperazin-1-yl)-5-fluoro-1-methyl-1H-indole-3-carboxylic Acid] | – | 72 | 224 | Pct Effect (Emax %) (FXR LBD, GST): 161.70% |
| CN(Cc1c(-c2c(Cl)cccc2Cl)noc1C1CC1)C1CCN(c2ccc3c(C(=O)O)cn(C)c3c2)CC1 [Example I58, 6-(4-(((5-cyclopropyl-3-(2,6-dichlorophenyl)isoxazol-4-yl)methyl)(methyl)amino)piperidin-1-yl)-1-methyl-1H-indole-3-carboxylic Acid] | 83.4 | 497 | 2270 | – |
| CC(C)c1onc(-c2c(Cl)cccc2Cl)c1COc1ccc(/C=C/c2cccc(C(=O)O)c2)c(Cl)c1 [GW4604] | – | – | – | agonistic activity to FXR (FXR): strong agonistic activity; bioavailability [2]: low bioavailability |
| O=C(O)c1cc(F)c2nc(N3[C@@H]4CC[C@H]3C[C@@H](OCc3c(-c5ccccc5OC(F)(F)F)noc3C3CC3)C4)sc2c1 [LJN452] | – | – | – | drug-related pruritus ([3]; after multiple doses): No drug-related pruritus was observed; ALT/AST ([3]; individual subjects): ALT/AST increased in individual subjects; drug-related adverse reactions ([3]; single dose of up to 3 mg): No drug-related adverse reactions were observed; safety and tolerability ([3]; single dose of up to 3 mg): performed well in safety and tolerability |
| Cn1cc(C(=O)O)c2ccc(N3CCC(OCc4c(-c5c(Cl)cccc5Cl)noc4C4CC4)CC3)cc21 [LY-2562175] | – | – | – | transcriptional activation of other nuclear receptor (other nuclear receptor): didn't promote transcriptional activation of other nuclear receptor; effect on LDL, triglycerides and HDL [4]: lowered LDL and triglycerides while raising HDL |
| CC[C@H]1[C@@H](O)[C@@H]2[C@H](CC[C@]3(C)[C@@H]([C@H](C)CCC(=O)O)CC[C@@H]23)[C@@]2(C)CC[C@@H](O)C[C@@H]12 [OCA, 6α-ethyl-chenodeoxycholic acid] | – | – | – | pruritus [5]: may be associated with increased pruritus |
